We go through 32 molecules from patent publication US20210101881A1 (Ancureall Pharmaceutical (Shanghai) Co., Ltd., priority 2018, published 2021).

The assay relates to MOLM13 cells. Description: Growth inhibition of CDK9-positive cell line MOLM13 in vitro (CCK8/MTT assay). Type of assay: cell-based, human. The following applies: Homo sapiens, MOLM-13; MOLM13 cells, cultured 3 to 6 days, CCK8; read-out: IC50 of the compound for inhibiting cell growth, MOLM13 cells. The method, then:
1. MOLM13 cell line and cell culture MOLM13 is a CDK9-positive human acute myeloid leukemia cell line from DMSZ. Suspension culture was carried out in RPMI1640 (Gibco) medium with 10% fetal bovine serum (Gibco), 1% penicillin-streptomycin and 2 mM glutamine.
Suspended MOLM-13 cells in logarithmic growth phase were collected by centrifugation (1700 rpm, 3 minutes), the supernatant was discarded, and the cells were counted. A solution with a cell concentration of 2×10^5 cells per milliliter was formulated and inoculated in a 96-well plate (Corning) with 100 microliters per well. The plate was incubated at 37° C., 5% CO2 overnight. On the next day, the test compound was added to the cultured cells in two parallel wells. […]
The present compound and the control compounds were respectively dissolved in DMSO (Sigma).
When the solvent control well became dark yellow, the OD450 nm absorption value was measured, and the cell growth rate was calculated according to the following formula. Cell growth rate %=100*(T−T0)/(C−T0), wherein T=the optical density value of the drug-treated well—the optical density value of the blank control well, T0=the optical density value of the well before drug treatment—the optical density value of the blank control well, C=the optical density value of the solvent control well—the optical density value of the blank control well. […] The assay was repeated three times, and the data was subjected to a biological statistical analysis.

In the case of `CN(C)CCOc1cccc(Nc2nccc(-n3cc(C(N)=O)c4ccccc43)n2)c1` [Compound 129, 1-{2-[3-(2-dimethylamino-ethoxy)-phenylamino]-pyrimidin-4-yl}-1H-indole-3-carboxamide], the IC50 fell in the range of 10 to 100 nM.

Regarding `CN(CCN1CCCC1)c1ccc(Nc2ncc(F)c(-n3cc(C(N)=O)c4ccccc43)n2)cc1F` [Compound 95, 1-(5-fluoro-2-{3-fluoro-4-[methyl-(2-pyrrolidin-1-yl-ethyl)-amino]-phenylamino}-pyrimidin-4-yl)-1H-indole-3-carboxamide], the IC50 fell in the range of 10 to 100 nM. Then `NC(=O)c1cn(-c2nc(Nc3cccc(N4CCN(CC5CCCO5)CC4)c3)ncc2F)c2ccccc12` (centres unmarked) [Compound 160, 1-(5-fluoro-2-{3-[4-(tetrahydro-furan-2-ylmethyl)-piperazin-1-yl]-phenylamino}-pyrimidin-4-yl)-1H-indole-3-carboxamide], with 10 to 100 nM; and `NC(=O)c1cn(-c2ccnc(Nc3ccc(OCCN4CCOCC4)cc3)n2)c2ccccc12` [Compound 21, 1-{2-[4-(2-morpholin-4-yl-ethoxy)-phenylamino]-pyrimidin-4-yl}-1H-indole-3-carboxamide], with 10 to 100 nM. On to `NC(=O)c1cn(-c2ccnc(Nc3ccc(F)c(Br)c3)n2)c2ccccc12` [Compound 1, 1-[2-(3-bromo-4-fluoro-phenylamino)-pyrimidin-4-yl]-1H-indole-3-carboxamide], for which the IC50 is more than 1000 nM. On to `Cc1ccc(Nc2ncc(F)c(-n3cc(C(N)=O)c4ccccc43)n2)cc1N1CCN(C)CC1` [Compound 117, 1-{5-fluoro-2-[4-methyl-3-(4-methyl-piperazin-1-yl)-phenylamino]-pyrimidin-4-yl}-1H-indole-3-carboxamide], for which the IC50 was 10 to 100 nM.

On to `NC(=O)c1cn(-c2ccnc(Nc3cc(F)cc(C(F)(F)F)c3)n2)c2ccccc12` [Compound 4, 1-[2-(3-fluoro-5-trifluoromethyl-phenylamino)-pyrimidin-4-yl]-1H-indole-3-carboxamide], for which the IC50 is more than 1000 nM.

Regarding `Cc1cnn(-c2cccc(Nc3ncc(F)c(-n4cc(C(N)=O)c5ccccc54)n3)c2)c1` [Compound 154, 1-{5-fluoro-2-[3-(4-methyl-pyrazol-1-yl)-phenylamino]-pyrimidin-4-yl}-1H-indole-3-carboxamide], the IC50 was 100 to 1000 nM.

In the case of `CN(C)CCN1CCN(c2ccc(Nc3nccc(-n4cc(C(N)=O)c5ccccc54)n3)cc2F)CC1` [Compound 63, 1-(2-{4-[4-(2-dimethylamino-ethyl)-piperazin-1-yl]-3-fluoro-phenylamino}-pyrimidin-4-yl)-1H-indole-3-carboxamide], the IC50 lay within 1 to 10 nM.

For `Cc1cc(Nc2nccc(-n3cc(C(N)=O)c4ccccc43)n2)ccc1N1CCNCC1` [Compound 28, 1-[2-(3-methyl-4-piperazin-1-yl-phenylamino)-pyrimidin-4-yl]-1H-indole-3-carboxamide], the IC50 is 1 to 10 nM.

Consider `COc1cc(Nc2ncc(F)c(-n3cc(C(N)=O)c4ccccc43)n2)ccc1N1CCNCC1` [Compound 40, 1-[5-fluoro-2-(3-methoxy-4-piperazin-1-yl-phenylamino)-pyrimidin-4-yl]-1H-indole-3-carboxamide], for which the IC50 was less than 1 nM. The figure for `NC(=O)c1cn(-c2ccnc(Nc3ccc(NC4CCNCC4)cc3)n2)c2ccccc12` [Compound 12, 1-{2-[4-(piperidin-4-amino)-phenylamino]-pyrimidin-4-yl}-1H-indole-3-carboxamide] is 10 to 100 nM; for `CN(CCN1CCCC1)c1ccc(Nc2ncc(Cl)c(-n3cc(C(N)=O)c4ccccc43)n2)cc1` [Compound 94, 1-(5-chloro-2-{4-[methyl-(2-pyrrolidin-1-yl-ethyl)-amino]-phenylamino}-pyrimidin-4-yl)-1H-indole-3-carboxamide] it is 1 to 10 nM.

Take `Cc1cc(C)nc(Nc2nccc(-n3cc(C(N)=O)c4ccccc43)n2)c1` [Compound 132, 1-[2-(4,6-dimethyl-pyridin-2-ylamino)-pyrimidin-4-yl]-1H-indole-3-carboxamide]: the IC50 was more than 1000 nM. Regarding `CN(CCN1CCOCC1)c1ccc(Nc2nccc(-n3cc(C(N)=O)c4ccccc43)n2)cc1` [Compound 72, 1-(2-{4-[methyl-(2-morpholin-4-ethyl)-amino]-phenylamino}-pyrimidin-4-yl)-1H-indole-3-carboxamide], the IC50 lay in the range of 10 to 100 nM. Take `NC(=O)c1cn(-c2nc(Nc3cccc(N4CCNCC4)c3)ncc2F)c2ccccc12` [Compound 146]: the IC50 lay in the range of 10 to 100 nM. Take `NC(=O)c1cn(-c2ccnc(Nc3ccc(N4CCNCC4)cc3)n2)c2cccc(F)c12` [Compound 29, 4-fluoro-1-[2-(4-piperazin-1-yl-phenylamino)-pyrimidin-4-yl]-1H-indole-3-carboxamide]: the IC50 was 10 to 100 nM. As for `CN(C)CCN(C)c1cccc(Nc2nccc(-n3cc(C(N)=O)c4ccccc43)n2)c1` [Compound 110, 1-(2-{3-[(2-dimethylamino-ethyl)-methyl-amino]-phenylamino}-pyrimidin-4-yl)-1H-indole-3-carboxamide], the IC50 fell in the range of 1 to 10 nM.

Take `CCN1CCN(c2cccc(Nc3ncc(F)c(-n4cc(C(N)=O)c5cc(OCCOC)ccc54)n3)c2)CC1` [Compound 164, 1-{2-[3-(4-ethyl-piperazin-1-yl)-phenylamino]-5-fluoro-pyrimidin-4-yl}-5-(2-methoxy-ethoxy)-1H-indole-3-carboxamide]: the IC50 was in the range of 1 to 10 nM. The figure for `CN1CCN(c2cc(Nc3ncc(Cl)c(-n4cc(C(N)=O)c5ccccc54)n3)ccc2F)CC1` [Compound 119, 1-{5-chloro-2-[4-fluoro-3-(4-methyl-piperazin-1-yl)-phenylamino]-pyrimidin-4-yl}-1H-indole-3-carboxamide] is 10 to 100 nM; for `CC(=O)N1CCN(Cc2ccc(Nc3nccc(-n4cc(C(N)=O)c5ccccc54)n3)cc2)CC1` [Compound 15, 1-{2-[4-(4-acetyl-piperazin-1-methyl)-phenylamino]-pyrimidin-4-yl}-1H-indole-3-carboxamide] it is 10 to 100 nM; for `CC(O)CN1CCN(c2cccc(Nc3ncc(F)c(-n4cc(C(N)=O)c5ccccc54)n3)c2)CC1` (centres unmarked) [Compound 155, 1-(5-fluoro-2-{3-[4-(2-hydroxy-propyl)-piperazin-1-yl]-phenylamino}-pyrimidin-4-yl)-1H-indole-3-carboxamide] it is 1 to 10 nM. The figure for `CN1CCC(N2CCN(c3cccc(Nc4ncc(F)c(-n5cc(C(N)=O)c6ccccc65)n4)c3)CC2)CC1` [Compound 148, 1-(5-fluoro-2-{3-[4-(1-methyl-piperidin-4-yl)-piperazin-1-yl]-phenylamino}-pyrimidin-4-yl)-1H-indole-3-carboxamide] is 1 to 10 nM.

`CCN1CCN(c2cccc(Nc3ncc(F)c(-n4cc(C(N)=O)c5ccccc54)n3)c2)CC1` [Compound 142, 1-{2-[3-(4-ethyl-piperazin-1-yl)-phenylamino]-5-fluoro-pyrimidin-4-yl}-1H-indole-3-carboxamide]: the IC50 was less than 1 nM. Then `COc1cc(F)ccc1-c1cc(Nc2cc(CS(C)(=N)=O)ccn2)ncc1F` (centres unmarked) [BAY1251125, reference compound], with 10 to 100 nM; and `NC(=O)c1cn(-c2nc(Nc3cccc(N4CCN(C(=O)C5CCCO5)CC4)c3)ncc2F)c2ccccc12` (centres unmarked) [Compound 158, 1-(5-fluoro-2-{3-[4-(tetrahydro-furan-2-carbonyl)-piperazin-1-yl]-phenylamino}-pyrimidin-4-yl)-1H-indole-3-carboxamide], with 10 to 100 nM. Then `C=CC(=O)N1CCN(c2ccc(Nc3nccc(-n4cc(C(N)=O)c5ccccc54)n3)cc2C)CC1` [Compound 64, 1-{2-[4-(4-acryloyl-piperazin-1-yl)-3-methyl-phenylamino]-pyrimidin-4-yl}-1H-indole-3-carboxamide], with 10 to 100 nM; and `COc1ccc2c(c1)c(C(N)=O)cn2-c1nc(Nc2cccc(N3CCN(C(C)C)CC3)c2)ncc1F` [Compound 159, 1-{5-fluoro-2-[3-(4-isopropyl-piperazin-1-yl)-phenylamino]-pyrimidin-4-yl}-5-methoxy-1H-indole-3-carboxamide], with 1 to 10 nM.

As to `COc1ccc2c(c1)c(C(N)=O)cn2-c1nc(Nc2cccc(N3CCN(C4CCOCC4)CC3)c2)ncc1F` [Compound 149, 1-(5-fluoro-2-{3-[4-(tetrahydro-pyran-4-yl)-piperazin-1-yl]-phenylamino}-pyrimidin-4-yl)-5-methoxy-1H-indole-3-carboxamide], the IC50 was 1 to 10 nM. The figure for `CN1CCN(CCNc2ccc(Nc3nccc(-n4cc(C(N)=O)c5ccccc54)n3)cc2)CC1` [Compound 11, 1-(2-{4-[2-(4-methyl-piperazin-1-yl)-ethylamino]-phenylamino}-pyrimidin-4-yl)-1H-indole-3-carboxamide] is 10 to 100 nM; for `CN(C)CCN(C)c1ccc(Nc2nccc(-n3cc(C(N)=O)c4ccccc43)n2)c(Br)c1` [Compound 78, 1-(2-{2-bromo-4-[(2-dimethylamino-ethyl)-methyl-amino]-phenylamino}-pyrimidin-4-yl)-1H-indole-3-carboxamide] it is 100 to 1000 nM; for `NC(=O)c1cn(-c2ccnc(Nc3ccc(OCCN4CCCC4)cc3)n2)c2ccccc12` [Compound 20, 1-{2-[4-(2-pyrrolidin-1-yl-ethoxy)-phenylamino]-pyrimidin-4-yl}-1H-indole-3-carboxamide] it is 10 to 100 nM.
